Results on 8 compounds are retold here after EP4467535A1, “LACTAM PESTICIDAL COMPOUNDS” (priority 2023, dated 2024).

Holding throughout (type): in vivo
Test [1] has as its system Diamond back moth (Plutella xylostella). The test is described as follows: Action on Diamond back moth (Plutella xylostella), cabbage leaf dip test. The following applies: foliar, third instar larvae on dipped cabbage leaves, 72 hours after treatment, read-out: mortality in comparison with untreated controls. Here is the method: Example B6: Action on Diamond back moth (Plutella xylostella)
The active compound is dissolved at the desired concentration in a mixture of 1:1 (v/v) distilled water: acetone. Surfactant (Kinetic® HV) is added at a rate of 0.01% (v/v). The test solution is prepared at the day of use.
Leaves of cabbage were dipped in test solution and air-dried. Treated leaves were placed in petri dishes lined with moist filter paper and inoculated with ten third instar larvae. Mortality was recorded 72 hours after treatment. Feeding damages were also recorded using a scale of 0-100%.

The test system of test [2] is Yellow fever mosquito (Aedes aegypti). Kind of test: whole plant or invertebrate. The following applies: 48 h, larval mortality visually assessed after 2 days at 28 ± 1°C, read-out: mortality in comparison with untreated controls. Here is the method:
Example B1: Action on Yellow fever mosquito (Aedes aegypti)
For evaluating control of yellow fever mosquito (Aedes aegypti) the test unit consisted of 96-well-microtiter plates containing 200µL of tap water per well and 5-15 freshly hatched A. aegypti larvae.
The active compounds or mixtures were formulated using a solution containing 75% (v/v) water and 25% (v/v) DMSO. Different concentrations of formulated compounds or mixtures were sprayed onto the insect diet at 2.5µL, using a custom-built micro atomizer, at two replications.
For experimental mixtures in these tests identical volumes of both mixing partners at the desired concentrations respectively, were mixed together.
After application, microtiter plates were incubated at 28 ± 1°C, 80 ± 5 % relative humidity for 2 days. Larval mortality was then visually assessed.

In test [3] the test system is Southern armyworm (Spodoptera eridania), second instar larvae. The test is described as follows: Action on Southern armyworm (Spodoptera eridania), sprayed lima bean plants. The following applies: 96 h, 4 days after treatment, read-out: mortality in comparison with untreated controls. The procedure: Example B7: Action on Southern armyworm (Spodoptera eridania), second instar larvae
The active compounds were formulated by a Tecan liquid handler in 100% cyclohexanone as a 10,000 ppm solution supplied in tubes. The 10,000 ppm solution was serially diluted in 100% cyclohexanone to make interim solutions. These served as stock solutions for which final dilutions were made by the Tecan in 50% acetone:50% water (v/v) into 10 or 20 mL glass vials. A nonionic surfactant (Kinetic®) was included in the solution at a volume of 0.01% (v/v). The vials were then inserted into an automated electrostatic sprayer equipped with an atomizing nozzle for application to plants/insects.
Lima bean plants (variety Sieva) were grown 2 plants to a pot and selected for treatment at the 1st true leaf stage. Test solutions were sprayed onto the foliage by an automated electrostatic plant sprayer equipped with an atomizing spray nozzle. The plants were dried in the sprayer fume hood and then removed from the sprayer. Each pot was placed into perforated plastic bags with a zip closure. About 10 to 11 armyworm larvae were placed into the bag and the bags zipped closed. Test plants were maintained in a growth room at about 25°C and about 20-40% relative humidity for 4 days, avoiding direct exposure to fluorescent light (24 hour photoperiod) to prevent trapping of heat inside the bags. Mortality and reduced feeding were assessed 4 days after treatment, compared to untreated control plants.

Test [4] deals with Boll weevil (Anthonomus grandis). Kind of test: Action on Boll weevil (Anthonomus grandis), 96-well microtiter plate insect diet test. The following applies: 120 h, egg and larval mortality visually assessed after 5 days, read-out: mortality in comparison with untreated controls. The procedure:
Example B3: Action on Boll weevil (Anthonomus grandis )
For evaluating control of boll weevil (Anthonomus grandis) the test unit consisted of 96-well-microtiter plates containing an insect diet and 5-10 A. grandis eggs.
The compounds were formulated using a solution containing 75% (v/v) water and 25% (v/v) DMSO. Different concentrations of formulated compounds were sprayed onto the insect diet at 5 µL, using a custom-built micro atomizer, at two replications.
After application, microtiter plates were incubated at about 25 + 1°C and about 75 + 5 % relative humidity for 5 days. Egg and larval mortality were then visually assessed.

Test [5] concerns Orchid thrips (Dichromothrips corbetti). Kind of test: Action on Orchid thrips (Dichromothrips corbetti), floral-immersion technique. The following applies: adult thrips on dipped orchid petals, 72 hours after treatment, read-out: mortality in comparison with untreated controls. The procedure: Example B2: Action on Orchid thrips (Dichromothrips corbetti)
Dichromothrips corbetti adults used for bioassay were obtained from a colony maintained continuously under laboratory conditions. For testing purposes, the test compound is diluted in a 1:1 mixture of acetone:water (vol:vol), plus Kinetic® HV at a rate of 0.01% v/v.
Thrips potency of each compound was evaluated by using a floral-immersion technique. All petals of individual, intact orchid flowers were dipped into treatment solution and allowed to dryin Petri dishes. Treated petals were placed into individual re-sealable plastic along with about 20 adult thrips. All test arenas were held under continuous light and a temperature of about 28°C for duration of the assay. After 3 days, the numbers of live thrips were counted on each petal. The percent mortality was recorded 72 hours after treatment.

Test [6] has as its system Tobacco budworm (Heliothis virescens). The test is described as follows: Action on Tobacco budworm (Heliothis virescens), 96-well microtiter plate insect diet test. The following applies: 120 h, egg and larval mortality visually assessed after 5 days, read-out: mortality in comparison with untreated controls. Here is the method: Example B5: Action on Tobacco budworm (Heliothis virescens)
For evaluating control of tobacco budworm (Heliothis virescens) the test unit consisted of 96-well-microtiter plates containing an insect diet and 15-25 H. virescens eggs.
The compounds were formulated using a solution containing 75% v/v water and 25% v/v DMSO. Different concentrations of formulated compounds were sprayed onto the insect diet at 10 µl, using a custom-built micro atomizer, at two replications.
After application, microtiter plates were incubated at about 28 + 1°C and about 80 + 5 % relative humidity for 5 days. Egg and larval mortality were then visually assessed.

Test [7] concerns Diamond back moth (Plutella xylostella). The test is described as follows: Action on Diamond back moth (Plutella xylostella), 96-well microtiter plate insect diet test. The following applies: 120 h, read-out: mortality in comparison with untreated controls. The procedure:
Example B8: Action on Diamond back moth (Plutella xylostella)
For evaluating control of diamond back moth (Plutella xylostella) the test unit consisted of 96-well-microtiter plates containing an insect diet and 15-25 P. xylostella eggs. The compounds or mixtures were formulated using a solution containing 75% water and 25% DMSO. Different concentrations of formulated compounds or mixtures were sprayed onto the insect diet at 5µl, using a custom-built micro atomizer, at two replications. For experimental mixtures in these tests identical volumes of both mixing partners at the desired concentrations respectively, were mixed together. After application, microtiter plates were incubated at 28 ± 1°C, 80 ± 5 % relative humidity for 5 days. Egg and larval mortality was then visually assessed.

The structures appear in SMILES notation.

Broadly, the mortality is the share of the test organisms that died.

Turning to `Cc1ccc(C(C)C)c(NC(=S)N/N=C/c2ccc(-c3nn(C)c(N4Cc5cc(OC(F)(F)F)ccc5C4=O)c3C)cc2)c1` [C-1, 1-[(E)-[4-[1,4-dimethyl-5-[1-oxo-5-(trifluoromethoxy)isoindolin-2-yl]pyrazol-3-yl]phenyl]methyleneamino]-3-(2-isopropyl-5-methyl-phenyl)thiourea], the mortality at 300 ppm in test [1], in test [3] and in test [5] was ≥ 75% throughout. The mortality at 800 ppm in test [2] was ≥ 50%; in test [4] it was ≥ 75%; in test [6] it was ≥ 75%.
Regarding `Cc1ccc(C(C)C)c(N2C(=O)CS/C2=N\C(=O)Nc2ccc(-c3nn(C)c(N4CCc5cc(OC(F)(F)F)ccc5C4=O)c3C)cc2Cl)c1` [C-12, (3Z)-1-[2-chloro-4-[1,4-dimethyl-5-[1-oxo-6-(trifluoromethoxy)-3,4-dihydroisoquinolin-2-yl]pyrazol-3-yl]phenyl]-3-[3-(2-isopropyl-5-methyl-phenyl)-4-oxo-thiazolidin-2-ylidene] urea], the mortality at 300 ppm in test [1], in test [3] and in test [5] was ≥ 75% throughout. In addition, the values for the mortality at 800 ppm in test [2], in test [4] and in test [6] were ≥ 50%, ≥ 75% and ≥ 75%, respectively.
Consider `Cc1ccc(C(C)C)c(N2C(=O)CS/C2=N\C(=O)Nc2ccc(-c3nn(C)c(N4CCc5cc(OC(F)(F)F)ccc5C4=O)c3C)cc2)c1` [C-11, (3Z)-1-[4-[1,4-dimethyl-5-[1-oxo-6-(trifluoromethoxy)-3,4-dihydroisoquinolin-2-yl]pyrazol-3-yl]phenyl]-3-[3-(2-isopropyl-5-methyl-phenyl)-4-oxo-thiazolidin-2-ylidene]urea], for which the mortality at 300 ppm in test [1], in test [3] and in test [5] was ≥ 75% throughout. For the same compound, the mortality at 800 ppm in test [2] is ≥ 50%; in test [4], ≥ 75%; in test [6], ≥ 75%.
Take `Cc1ccc(C(C)C)c(N2C(=O)CS/C2=N\N=C\c2ccc(-c3nn(C)c(N4CCc5cc(OC(F)(F)F)ccc5C4=O)c3C)cc2)c1` [C-8, (2Z)-2-[(E)-[4-[1,4-dimethyl-5-[1-oxo-6-(trifluoromethoxy)-3,4-dihydroisoquinolin-2-yl]pyrazol-3-yl]phenyl]methylenehydrazono]-3-(2-isopropyl-5-methyl-phenyl)thiazolidin-4-one]: the mortality at 300 ppm in test [1], in test [3] and in test [5] was ≥ 75% each time. For the same compound, the results for the mortality at 800 ppm in test [2], in test [4] and in test [6] were ≥ 50%, ≥ 75% and ≥ 75%, respectively.
With `Cc1ccc(C(C)C)c(N2C(=O)CS/C2=N\N=C\c2ccc(-c3nc(N4CCc5cc(OC(F)(F)F)ccc5C4=O)n(C)n3)cc2)c1` [C-9, (2Z)-3-(2-isopropyl-5-methyl-phenyl)-2-[(E)-[4-[1-methyl-5-[1-oxo-6-(trifluoromethoxy)-3,4-dihydroisoquinolin-2-yl]-1,2,4-triazol-3-yl]phenyl]methylenehydrazono] thiazolidin-4-one], the mortality at 800 ppm was ≥ 75% in test [7], ≥ 50% in test [2], ≥ 75% in test [4] and ≥ 75% in test [6]. Moreover, the mortality at 300 ppm in test [3] and in test [5] was ≥ 75% each time.
As to `Cc1ccc(C(C)C)c(NC(=S)N/N=C/c2ccc(-c3nn(C)c(N4CCc5cc(OC(F)(F)F)ccc5C4=O)c3C)cc2)c1` [C-7, 1-[(E)-[4-[1,4-dimethyl-5-[1-oxo-6-(trifluoromethoxy)-3,4-dihydroisoquinolin-2-yl]pyrazol-3-yl]phenyl]methyleneamino]-3-(2-isopropyl-5-methyl-phenyl)thiourea], the mortality at 800 ppm in test [7] was ≥ 75%; in test [2], ≥ 50%; in test [4] it was ≥ 75%; in test [6], ≥ 75%. Besides, the mortality at 300 ppm in test [3] and in test [5] was ≥ 75% throughout.
Consider `CCOC(=O)OCS/C(=N\N=C\c1ccc(-c2nn(C)c(N3Cc4cc(OC(F)(F)F)ccc4C3=O)c2C)cc1)Nc1cc(C)ccc1C(C)C` [C-4, [(Z)-N'-[(E)-[4-[1,4-dimethyl-5-[1-oxo-5-(trifluoromethoxy)isoindolin-2-yl]pyrazol-3-yl]phenyl]methyleneamino]-N-(2-isopropyl-5-methyl-phenyl)carbamimidoyl]sulfanylmethyl ethyl carbonate], for which the mortality at 800 ppm was ≥ 75% in test [7], ≥ 50% in test [2], ≥ 75% in test [4] and ≥ 75% in test [6]. Besides, the mortality at 300 ppm in test [3] and in test [5] was ≥ 75% each time.
`Cc1ccc(C(C)C)c(N/C(=N/N=C/c2ccc(-c3nn(C)c(N4Cc5cc(OC(F)(F)F)ccc5C4=O)c3C)cc2)SCOC(=O)C(C)C)c1` [C-3, [(Z)-N'-[(E)-[4-[1,4-dimethyl-5-[1-oxo-5-(trifluoromethoxy)isoindolin-2-yl]pyrazol-3-yl]phenyl]methyleneamino]-N-(2-isopropyl-5-methyl-phenyl)carbamimidoyl]sulfanylmethyl 2-methylpropanoate]: the mortality at 800 ppm was ≥ 75% in test [7], ≥ 50% in test [2], ≥ 75% in test [4] and ≥ 75% in test [6]. For the same compound, the mortality at 300 ppm in test [3] and in test [5] was ≥ 75% throughout.
